Experimental findings from patent US10815226B2, “Heteroaryl compounds as inhibitors of necrosis, composition and application thereof” (ACCRO BIOSCIENCE INC., priority 2016, dated 2020) are described below.

The structures appear in SMILES notation.

In experiment [1] the test system is HT29 cells. Briefly: HT29 cell necroptosis assay (TNF-α/Smac mimetic/z-VAD induced necrosis, viability). In kind it is cell-based, human. The note with it: 10 μM test compound pretreated one hour, TNF-α (40 ng/mL), Smacmimetic (100 nM), z-VAD (20 μM) for 48 hours. As for the experimental part:
Biological in Vitro HT29 Cell Assay.
The efficacies of RIP1 inhibitors were tested in vitro using human colon cancer TH29 cells in a necroptosis assay. For the assay, Cells were added to 96-well plates and then 10 μM of the test compound was pretreated for one hour. Then the cells were treated with TNF-α (40 ng/mL), Smacmimetic (100 nM) and z-VAD (20 μM) for 48 hours, and the viability was quantified. DMSO pretreatment group was negative control, Nec-1 pretreatment group was positive control.

For experiment [2], the system named is HT29 cells. The experiment is described as above. Format: cell-based, human. As to conditions: Homo sapiens, HT-29, HT29 cells, TNF-α/Smacmimetic/z-VAD induced necrosis; values in nM.

Consider `CC(=O)Nc1nc2ccc(-c3cnc(C)c(NC(=O)CN4CCC(O)CC4)c3)cc2s1` [Compound A39], for which the “HT29 Inhibition (10 μM)” value with HT29 cells [1] stood at 9%. The IC50 is the concentration at which inhibition is half-maximal. On to `CC(=O)Nc1cn2nc(-c3cnc(C)c(NC(=O)OC4CCCCC4)c3)ccc2n1` [Compound A65], for which the IC50 in the experiment on HT29 cells [2] was 167 nM. With `CC(=O)Nc1nc2ccc(-c3cncc(NC(=O)Cc4ccccc4Cl)n3)cc2s1` [Compound A34], the “HT29 Inhibition (10 μM)” value with HT29 cells [1] stood at 1%. In turn, `CCOC(=O)Nc1nc2ccc(-c3cnc(C)c(NC(=O)OC4CCCCC4)c3)cc2s1` [Compound A62] came in with an IC50 in the experiment with HT29 cells [2] of 63 nM. Regarding `CCOC(=O)Nc1cc(-c2ccc3nc(NC(C)=O)sc3c2)cnc1C` [Compound A52], in the experiment with HT29 cells [1], the “HT29 Inhibition (10 μM)” value is recorded as 10%. For `CC(=O)Nc1nc2ccc(-c3cnc(C)c(NC(=O)OC4CCOCC4)c3)cc2s1` [Compound A55], the IC50 in the experiment with HT29 cells [2] was 253 nM. As to `CC(=O)Nc1nc2ccc(-c3cc(NC(=O)OC4CCCCC4)c(C)nn3)cc2s1` [Compound A66, Cyclohexyl 6-(2-acetamidobenzo[d]thiazol-6-yl)-3-methylpyridazin-4-ylcarbamate], inhibition with HT29 cells [2] was half-maximal at 247 nM (IC50). On to `Cc1ncc(-c2ccc3nc(NC(=O)C4CC4)cn3c2)cc1NC(=O)OC1CCCCC1` [Compound A81, Cyclohexyl (5-(2-(cyclopropanecarboxamido)imidazo[1,2-a]pyridin-6-yl)-2-methylpyridin-3-yl)carbamate], for which the IC50 in the experiment with HT29 cells [2] turned out to be 9 nM.

In the case of `CC(=O)Nc1nc2ccc(-c3cnc(Cl)c(NC(=O)OC4CCCCC4)c3)cc2s1` [Compound A83], half-maximal inhibition with HT29 cells [2] (IC50) required 45 nM. Take `CC(=O)Nc1nc2ccc(-c3cnc(C)c(NC(=O)OC4COC4)c3)cc2s1` [Compound A93]: the “HT29 Inhibition (10 μM)” value with HT29 cells [1] turned out to be 8%.

As for `CCC(CC)OC(=O)Nc1cc(-c2ccc3nc(NC(C)=O)sc3c2)cnc1C` [Compound A89], in the experiment with HT29 cells [2], half-maximal inhibition (IC50) required 51 nM. As to `CC(C)(C)OC(=O)NCCCNc1nc2ccc(-c3cnc(Cl)c(NC(=O)c4cccc(F)c4)c3)cc2s1` [Compound A6], the “HT29 Inhibition (10 μM)” value in the experiment on HT29 cells [1] came to 5%. On to `O=C(CCCC[C@@H]1SC[C@@H]2NC(=O)N[C@@H]21)NCCCCCC(=O)NCCCNc1nc2ccc(-c3cnc(Cl)c(NC(=O)c4cccc(F)c4)c3)cc2s1` [Compound A9], for which the “HT29 Inhibition (10 μM)” value in the experiment with HT29 cells [1] stood at 8%. In the experiment with HT29 cells [2], `CC(=O)Nc1nc2ccc(-c3cnc(C)c(NC(=O)OC4CCC(F)(F)CC4)c3)cc2s1` [Compound A59] displayed an IC50 of 689 nM. Still for that read-out and setting: the result for `CC(=O)Nc1nc2ccc(-c3cnc(C)c(NC(=O)OC4CCCCCC4)c3)cc2s1` [Compound A87] reads 9 nM. For the compound `CC(=O)Nc1ncc2ccc(-c3cnc(C)c(NC(=O)OC4CCCCC4)c3)cc2n1` [Compound A98], the “HT29 Inhibition (10 μM)” value with HT29 cells [1] is recorded as 50%. Compound `CC(=O)Nc1nc2ccc(-c3cc(NC(=O)OC4CCCCC4)c(C)cn3)cc2s1` [Compound A51] yielded an IC50 with HT29 cells [2] of 73 nM.

For `CC(=O)Nc1nc2ccc(-c3cnc(C)c(NC(=O)OC(C)C4CC4)c3)cc2s1` (stereo not shown) [Compound A88], the 50% inhibitory concentration (IC50) in the experiment with HT29 cells [2] stood at 40 nM. In the experiment on HT29 cells [2], `CC(=O)Nc1nc2ccc(-c3cnc(C#N)c(NC(=O)OC4CCCCC4)c3)cc2s1` [Compound A72] yielded an IC50 of 534 nM.

`CC(=O)Nc1nc2ccc(-c3cnc(C)c(NC(=O)CC4CC4)c3)cc2s1` [Compound A42, N-(5-(2-acetamidobenzo[d]thiazol-6-yl)-2-methylpyridin-3-yl)-2-cyclopropylacetamide]: in the experiment with HT29 cells [1], the “HT29 Inhibition (10 μM)” value is 22%.

Regarding `Cc1ncc(-c2ccc3nc(NS(C)(=O)=O)sc3c2)cc1NC(=O)OC1CCCCC1` [Compound A85], the “HT29 Inhibition (10 μM)” value in the experiment on HT29 cells [1] is 7%. `CC(=O)Nc1nc2ccc(-c3cnc(C)c(NC(=O)O[C@H]4CC[C@H](O)CC4)c3)cc2s1` [Compound A79]: the “HT29 Inhibition (10 μM)” value with HT29 cells [1] was 35%. In the case of `CC(=O)Nc1nc2ccc(-c3cnc(C)c(NC(=O)OCc4ccccc4)c3)cc2s1` [Compound A74], in the experiment with HT29 cells [1], the “HT29 Inhibition (10 μM)” value is recorded as 8%. `Cc1ncc(-c2ccc3nc(NCC#N)sc3c2)cc1NC(=O)OC1CCCCC1` [Compound A91]: in the experiment on HT29 cells [1], the “HT29 Inhibition (10 μM)” value was 40%.

In the case of `O=C(Nc1cc(-c2ccc3ncsc3c2)cnc1Cl)c1cccc(F)c1` [Compound A11], the “HT29 Inhibition (10 μM)” value in the experiment with HT29 cells [1] was determined as 8%. `CC(=O)Nc1nc2ccc(-c3cccc(NC(=O)Cc4ccccc4Cl)n3)cc2s1` [Compound A35]: the “HT29 Inhibition (10 μM)” value in the experiment on HT29 cells [1] stood at 1%. In the case of `CC(=O)Nc1nc2ccc(-c3cnc(C)c(NC(=O)Oc4ccccc4)c3)cc2s1` [Compound A82], in the experiment on HT29 cells [1], the “HT29 Inhibition (10 μM)” value came out at 7%.

As for `Cc1ncc(-c2ccc3nc(N(C)C(=O)CCCCCNC(=O)CCCCCNC(=O)CCCC[C@@H]4SC[C@@H]5NC(=O)N[C@@H]54)sc3c2)cc1NC(=O)Cc1ccccc1` [Compound A102], the “HT29 Inhibition (10 μM)” value in the experiment with HT29 cells [1] was 5%.

Regarding `CNc1nc2ccc(-c3cnc(C)c(NC(=O)OC4CCCCC4)c3)cc2s1` [Compound A103], in the experiment with HT29 cells [1], the “HT29 Inhibition (10 μM)” value is 20%. Consider `CC(=O)Nc1nc2ncc(-c3cnc(C)c(NC(=O)OC4CCCCC4)c3)cc2s1` [Compound A63], for which the “HT29 Inhibition (10 μM)” value with HT29 cells [1] is 9%. Still for that read-out and setting: the figure for `Cc1ncc(-c2ccc3nc(N(C)C(=O)CCCCCNC(=O)OC(C)(C)C)sc3c2)cc1NC(=O)Cc1ccccc1` [Compound A101] is 5%; for `NCCCNc1nc2ccc(-c3cnc(Cl)c(NC(=O)c4cccc(F)c4)c3)cc2s1` [Compound A7] it is 8%. For the compound `O=C(Cc1ccccc1)Nc1cc(-c2ccc3ncsc3c2)cnc1Cl` [Compound A100], in the experiment with HT29 cells [1], the “HT29 Inhibition (10 μM)” value came to 9%. As to `CC(=O)Nc1nc2ccc(-c3cncc(NC(=O)Cc4cccc(F)c4)c3)cc2s1` [Compound A17], in the experiment with HT29 cells [1], the “HT29 Inhibition (10 μM)” value worked out at 45%. The same measure, in the same setting: the result for `CC(=O)Nc1nc2ccc(-c3cc(NC(=O)OC4CCCCC4)ncn3)cc2s1` [Compound A76] reads 5%; that for `CC(=O)Nc1nc2ccc(-c3cnc(CCCNC(=O)CCCCCNC(=O)CCCC[C@H]4SC[C@H]5NC(=O)N[C@H]54)c(NC(=O)c4cccc(F)c4)c3)cc2s1` [Compound A8], 10%; that for `CC(=O)Nc1nc2ccc(-c3cnc(C)c(NC(=O)CN4CCCC4)c3)cc2s1` [Compound A41], 14%. In the case of `Cc1ncc(-c2ccc3nc(NC(=O)CCCCCNC(=O)CCCCCNC(=O)CCCC[C@@H]4SC[C@@H]5NC(=O)N[C@@H]54)sc3c2)cc1NC(=O)Cc1ccccc1` [Compound A32], the “HT29 Inhibition (10 μM)” value in the experiment on HT29 cells [1] came to 21%.

Take `CC(=O)Nc1nc2ccc(-c3ccnc(NC(=O)OC4CCCCC4)c3)cc2s1` [Compound A75]: in the experiment with HT29 cells [1], the “HT29 Inhibition (10 μM)” value came to 6%.

Turning to `Cc1ncc(-c2ccc3[nH]c(=O)ccc3c2)cc1NC(=O)OC1CCCCC1` [Compound A97], the “HT29 Inhibition (10 μM)” value with HT29 cells [1] stood at 7%. Same read-out and setting: the result for `O=C(Nc1cc(-c2ccc3nncn3c2)cnc1Cl)c1cccc(F)c1` [Compound A10] reads 1%. For the compound `CC(=O)Nc1nc2ccc(-c3cnc(C)c(NC(=O)OC4CCC5(CC4)OCCO5)c3)cc2s1` [Compound A77], the “HT29 Inhibition (10 μM)” value in the experiment with HT29 cells [1] turned out to be 60%. For the compound `CC(=O)Nc1nc2ccc(-c3cnc(C)c(NC(=O)CN4CCOCC4)c3)cc2s1` [Compound A38], in the experiment with HT29 cells [1], the “HT29 Inhibition (10 μM)” value is on record as 33%. As for `CC(=O)Nc1ncc2cc(-c3cnc(C)c(NC(=O)OC4CCCCC4)c3)ccc2n1` [Compound A96], the “HT29 Inhibition (10 μM)” value in the experiment with HT29 cells [1] is 8%. Same read-out and setting: the figure for `CC(=O)Nc1nc2ccc(-c3cnc(Cl)c(NC(=O)c4ccccn4)c3)cc2s1` [Compound A2] is 8%; for `CC(=O)Nc1nc2ccc(-c3cncc(NC(=O)Cc4ccccc4)n3)cc2s1` [Compound A33] it is 1%.
